Measurements published in ChEMBL document CHEMBL2385026, “Identification of C-2 hydroxyethyl imidazopyrrolopyridines as potent JAK1 inhibitors with favorable physicochemical properties and high selectivity over JAK2” (J Med Chem, 2013).
In brackets after ≈: the same amount, converted by molar mass.

Assays:
[1] = Hepatic clearance in human liver microsomes by LC/MS/MS analysis; assay type: ADME, Microsome
[2] = molecular target: T1, Tyrosine-protein kinase JAK1 (Homo sapiens, UniProt P23458)
[3] = molecular target: T1, Tyrosine-protein kinase JAK1; remark: listed apart in the source
[4] = molecular target: T2, Tyrosine-protein kinase JAK2 (Homo sapiens, UniProt O60674); assay type: cell-based, TF-1
[5] = molecular target: T2, Tyrosine-protein kinase JAK2
[6] = Apparent permeability across apical to basolateral side in dog MDCK cells; assay type: ADME, cell-based, Canis lupus familiaris
[7] = Hepatic clearance in human hepatocytes after 1 to 4 hrs by LC/MS/MS analysis; assay type: ADME, cell-based, Liver, Hepatocyte
[8] = Thermodynamic solubility in aqueous buffer at pH 2; assay type: physicochemical; details: read-out: Therm_solubility
Cytochrome P450 1A2 = molecular target: T3, Cytochrome P450 1A2 (Homo sapiens, UniProt P05177); test: Reversible inhibition of CYP1A2 in human liver microsomes using phenacetin as substrate by LC/MS/MS analysis; assay type: ADME, Microsome
T3 sequence (P05177 whole entry): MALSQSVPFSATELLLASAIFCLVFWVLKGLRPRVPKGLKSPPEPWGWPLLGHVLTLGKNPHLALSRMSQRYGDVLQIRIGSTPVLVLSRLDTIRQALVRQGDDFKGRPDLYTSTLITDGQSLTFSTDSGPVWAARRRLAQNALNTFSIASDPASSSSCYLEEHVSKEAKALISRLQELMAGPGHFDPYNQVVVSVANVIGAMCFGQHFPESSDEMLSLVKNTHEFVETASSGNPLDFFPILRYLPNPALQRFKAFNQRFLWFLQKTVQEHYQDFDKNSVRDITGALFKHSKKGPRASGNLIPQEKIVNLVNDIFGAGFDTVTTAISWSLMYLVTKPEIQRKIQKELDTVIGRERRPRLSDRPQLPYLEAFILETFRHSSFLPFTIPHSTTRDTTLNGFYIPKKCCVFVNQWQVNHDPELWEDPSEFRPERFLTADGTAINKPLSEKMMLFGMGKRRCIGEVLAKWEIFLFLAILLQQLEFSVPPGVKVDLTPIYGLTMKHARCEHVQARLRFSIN

[9] = molecular target: Tyrosine-protein kinase JAK3 (Homo sapiens, UniProt P52333)
[10] = Half life in Beagle dog at 0.4 mg/kg, iv by LC/MS/MS analysis; assay type: ADME, organism-based, Canis lupus familiaris; design: dose 0.4 mg/kg, route intravenous; details: in vivo
[11] = molecular target: T4, Non-receptor tyrosine-protein kinase TYK2 (Homo sapiens, UniProt P29597)
[12] = Oral bioavailability in Sprague-Dawley rat at 2 mg/kg by LC/MS/MS analysis; assay type: ADME, organism-based; details: Sprague-Dawley, in vivo
[13] = Metabolic stability in dog hepatocytes assessed as hepatic clearance; assay type: ADME, cell-based, Canis lupus familiaris, Liver, Hepatocyte
[14] = AUC in Beagle dog at 2 mg/kg, po by LC/MS/MS analysis; assay type: ADME, organism-based, Canis lupus familiaris; design: dose 2 mg/kg, route oral; details: plasma
Cytochrome P450 3A4 [15] = molecular target: T5, Cytochrome P450 3A4 (Homo sapiens, UniProt P08684); test: Reversible inhibition of CYP3A4 in human liver microsomes using testosterone as substrate by LC/MS/MS analysis; assay type: ADME, Microsome
Cytochrome P450 3A4 [16] = molecular target: T5, Cytochrome P450 3A4; test: Reversible inhibition of CYP3A4 in human liver microsomes using midazolam as substrate by LC/MS/MS analysis; assay type: ADME, Microsome
[17] = molecular target: T1, Tyrosine-protein kinase JAK1; remark: listed apart in the source
[18] = Plasma protein binding in dog; assay type: ADME, cell-free, Canis lupus familiaris; details: read-out: PPB (converted)
[19] = molecular target: Voltage-gated inwardly rectifying potassium channel KCNH2 (Homo sapiens, UniProt Q12809)
[20] = Oral bioavailability in Beagle dog at 2 mg/kg by LC/MS/MS analysis; assay type: ADME, organism-based, Canis lupus familiaris; details: Beagle, in vivo
Cytochrome P450 2C19 = Cytochrome P450 2C19 (Homo sapiens, UniProt P33261)
[21] = Clearance in Beagle dog at 0.4 mg/kg, iv by LC/MS/MS analysis; assay type: ADME, organism-based, Canis lupus familiaris; design: dose 0.4 mg/kg, route intravenous; details: in vivo
[22] = Cmax in Beagle dog at 2 mg/kg, po by LC/MS/MS analysis; assay type: ADME, organism-based, Canis lupus familiaris; design: dose 2 mg/kg, route oral; details: in vivo
[23] = Half life in Sprague-Dawley rat at 0.4 mg/kg, iv by LC/MS/MS analysis; assay type: ADME, organism-based; design: dose 0.4 mg/kg, route intravenous; details: in vivo
[24] = molecular target: T4, Non-receptor tyrosine-protein kinase TYK2; remark: listed apart in the source
[25] = Clearance in Sprague-Dawley rat at 0.4 mg/kg, iv by LC/MS/MS analysis; assay type: ADME, organism-based; design: dose 0.4 mg/kg, route intravenous; details: in vivo
[26] = Cmax in Sprague-Dawley rat at 2 mg/kg, po by LC/MS/MS analysis; assay type: ADME, organism-based; design: dose 2 mg/kg, route oral; details: in vivo
[27] = Thermodynamic solubility in aqueous buffer at pH 7.4; assay type: physicochemical; details: read-out: Therm_solubility
Cytochrome P450 2D6 = Cytochrome P450 2D6 (Homo sapiens, UniProt P10635)
[28] = Metabolic stability in rat hepatocytes assessed as hepatic clearance; assay type: ADME, cell-based, Liver, Hepatocyte
[29] = AUC in Sprague-Dawley rat at 2 mg/kg, po by LC/MS/MS analysis; assay type: ADME, organism-based; design: dose 2 mg/kg, route oral; details: plasma
[30] = Apparent permeability across basolateral to apical side in dog MDCK cells; assay type: ADME, cell-based, Canis lupus familiaris
[31] = Metabolic stability in monkey hepatocytes assessed as hepatic clearance; assay type: ADME, cell-based, Macaca mulatta, Liver, Hepatocyte; details: rhesus monkey
[32] = Plasma protein binding in rat; assay type: ADME, cell-free; details: read-out: PPB (converted)
[33] = Plasma protein binding in cynomolgus monkey; assay type: ADME, cell-free, Macaca fascicularis; details: read-out: PPB (converted)
Cytochrome P450 2C9 = Cytochrome P450 2C9 (Homo sapiens, UniProt P11712)

T2 sequence (O60674 whole entry): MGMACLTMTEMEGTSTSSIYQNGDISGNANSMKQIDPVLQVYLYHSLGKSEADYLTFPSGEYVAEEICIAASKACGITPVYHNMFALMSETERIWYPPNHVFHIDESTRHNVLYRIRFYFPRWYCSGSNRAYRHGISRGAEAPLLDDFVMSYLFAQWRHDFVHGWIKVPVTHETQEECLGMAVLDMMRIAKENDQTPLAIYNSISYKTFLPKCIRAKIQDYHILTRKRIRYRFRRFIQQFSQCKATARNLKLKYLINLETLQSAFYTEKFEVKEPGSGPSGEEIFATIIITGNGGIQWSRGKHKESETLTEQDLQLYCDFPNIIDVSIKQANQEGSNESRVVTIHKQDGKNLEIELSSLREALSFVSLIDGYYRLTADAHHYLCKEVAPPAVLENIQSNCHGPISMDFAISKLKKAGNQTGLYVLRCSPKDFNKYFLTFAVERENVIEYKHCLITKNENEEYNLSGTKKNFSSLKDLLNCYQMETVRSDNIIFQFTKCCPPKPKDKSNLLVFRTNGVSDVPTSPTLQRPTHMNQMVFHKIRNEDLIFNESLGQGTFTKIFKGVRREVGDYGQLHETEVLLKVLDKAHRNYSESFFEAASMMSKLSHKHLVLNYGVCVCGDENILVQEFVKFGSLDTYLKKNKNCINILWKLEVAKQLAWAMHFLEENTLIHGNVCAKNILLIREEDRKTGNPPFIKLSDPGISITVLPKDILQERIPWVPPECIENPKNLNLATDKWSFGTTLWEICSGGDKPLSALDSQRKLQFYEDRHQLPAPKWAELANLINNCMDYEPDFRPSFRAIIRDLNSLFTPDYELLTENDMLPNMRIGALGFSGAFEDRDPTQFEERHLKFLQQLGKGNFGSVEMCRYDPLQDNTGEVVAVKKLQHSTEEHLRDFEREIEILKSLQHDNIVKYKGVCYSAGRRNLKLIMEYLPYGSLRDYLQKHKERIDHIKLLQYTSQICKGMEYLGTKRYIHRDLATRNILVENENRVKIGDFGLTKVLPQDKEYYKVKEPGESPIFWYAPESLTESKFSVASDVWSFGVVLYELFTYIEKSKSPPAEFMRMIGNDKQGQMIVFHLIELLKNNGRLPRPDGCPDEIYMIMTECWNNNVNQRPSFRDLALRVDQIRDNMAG
T1 sequence (P23458 whole entry): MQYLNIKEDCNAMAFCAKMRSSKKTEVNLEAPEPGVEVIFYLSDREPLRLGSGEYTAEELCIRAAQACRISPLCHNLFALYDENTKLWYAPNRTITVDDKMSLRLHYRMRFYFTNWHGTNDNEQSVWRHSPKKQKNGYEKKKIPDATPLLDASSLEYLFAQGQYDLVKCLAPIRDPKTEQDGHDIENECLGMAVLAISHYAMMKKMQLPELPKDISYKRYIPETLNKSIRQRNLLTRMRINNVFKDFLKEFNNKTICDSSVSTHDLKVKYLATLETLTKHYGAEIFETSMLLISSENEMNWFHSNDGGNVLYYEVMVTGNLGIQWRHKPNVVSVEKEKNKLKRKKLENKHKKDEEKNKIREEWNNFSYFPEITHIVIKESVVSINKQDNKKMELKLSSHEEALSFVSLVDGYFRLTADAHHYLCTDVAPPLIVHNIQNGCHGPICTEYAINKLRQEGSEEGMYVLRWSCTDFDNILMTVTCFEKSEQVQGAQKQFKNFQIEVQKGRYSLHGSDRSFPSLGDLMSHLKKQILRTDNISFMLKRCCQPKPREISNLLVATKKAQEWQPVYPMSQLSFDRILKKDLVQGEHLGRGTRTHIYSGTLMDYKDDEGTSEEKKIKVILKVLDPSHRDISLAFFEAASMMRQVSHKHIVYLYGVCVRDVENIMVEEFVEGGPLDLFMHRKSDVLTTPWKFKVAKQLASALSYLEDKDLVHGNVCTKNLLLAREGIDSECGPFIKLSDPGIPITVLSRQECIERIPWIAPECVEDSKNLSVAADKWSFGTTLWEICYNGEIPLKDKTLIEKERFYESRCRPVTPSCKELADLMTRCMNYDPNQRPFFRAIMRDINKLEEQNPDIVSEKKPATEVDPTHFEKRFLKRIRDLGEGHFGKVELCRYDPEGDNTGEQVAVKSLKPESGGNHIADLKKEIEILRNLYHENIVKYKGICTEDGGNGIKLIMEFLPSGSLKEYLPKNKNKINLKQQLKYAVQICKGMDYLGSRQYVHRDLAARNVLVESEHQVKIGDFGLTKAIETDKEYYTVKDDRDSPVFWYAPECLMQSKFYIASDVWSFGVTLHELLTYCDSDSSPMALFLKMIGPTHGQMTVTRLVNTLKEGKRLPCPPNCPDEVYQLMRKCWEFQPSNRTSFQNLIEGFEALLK
T4 sequence (P29597 whole entry): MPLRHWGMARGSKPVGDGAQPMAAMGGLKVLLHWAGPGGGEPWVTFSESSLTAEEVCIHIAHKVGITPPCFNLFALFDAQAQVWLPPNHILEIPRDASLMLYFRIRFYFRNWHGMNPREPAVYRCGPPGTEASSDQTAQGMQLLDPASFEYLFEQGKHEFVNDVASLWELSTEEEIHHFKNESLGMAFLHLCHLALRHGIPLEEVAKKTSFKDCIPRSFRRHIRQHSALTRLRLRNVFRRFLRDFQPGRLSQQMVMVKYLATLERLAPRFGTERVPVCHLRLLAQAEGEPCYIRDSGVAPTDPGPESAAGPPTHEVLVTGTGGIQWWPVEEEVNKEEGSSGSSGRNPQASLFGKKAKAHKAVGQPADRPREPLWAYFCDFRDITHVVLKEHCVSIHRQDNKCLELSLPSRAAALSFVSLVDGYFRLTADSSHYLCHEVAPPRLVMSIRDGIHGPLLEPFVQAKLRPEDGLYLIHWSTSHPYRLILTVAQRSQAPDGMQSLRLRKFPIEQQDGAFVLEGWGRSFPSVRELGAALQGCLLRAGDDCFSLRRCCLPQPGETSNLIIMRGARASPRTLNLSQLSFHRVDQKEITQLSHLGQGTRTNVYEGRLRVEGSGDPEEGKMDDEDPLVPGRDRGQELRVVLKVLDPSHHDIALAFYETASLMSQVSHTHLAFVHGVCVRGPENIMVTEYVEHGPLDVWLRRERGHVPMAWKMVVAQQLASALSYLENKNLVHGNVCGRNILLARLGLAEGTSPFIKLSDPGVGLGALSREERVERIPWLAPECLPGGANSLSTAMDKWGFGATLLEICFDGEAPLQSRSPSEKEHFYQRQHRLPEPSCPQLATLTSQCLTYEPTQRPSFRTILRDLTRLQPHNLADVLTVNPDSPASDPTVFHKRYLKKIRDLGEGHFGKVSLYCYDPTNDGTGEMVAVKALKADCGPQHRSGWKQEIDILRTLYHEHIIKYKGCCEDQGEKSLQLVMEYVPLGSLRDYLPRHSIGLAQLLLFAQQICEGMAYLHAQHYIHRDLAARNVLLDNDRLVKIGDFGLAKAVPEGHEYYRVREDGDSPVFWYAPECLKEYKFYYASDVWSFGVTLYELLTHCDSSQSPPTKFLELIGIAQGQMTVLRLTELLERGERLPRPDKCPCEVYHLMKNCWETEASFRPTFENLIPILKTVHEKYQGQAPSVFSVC
T5 sequence (P08684 whole entry): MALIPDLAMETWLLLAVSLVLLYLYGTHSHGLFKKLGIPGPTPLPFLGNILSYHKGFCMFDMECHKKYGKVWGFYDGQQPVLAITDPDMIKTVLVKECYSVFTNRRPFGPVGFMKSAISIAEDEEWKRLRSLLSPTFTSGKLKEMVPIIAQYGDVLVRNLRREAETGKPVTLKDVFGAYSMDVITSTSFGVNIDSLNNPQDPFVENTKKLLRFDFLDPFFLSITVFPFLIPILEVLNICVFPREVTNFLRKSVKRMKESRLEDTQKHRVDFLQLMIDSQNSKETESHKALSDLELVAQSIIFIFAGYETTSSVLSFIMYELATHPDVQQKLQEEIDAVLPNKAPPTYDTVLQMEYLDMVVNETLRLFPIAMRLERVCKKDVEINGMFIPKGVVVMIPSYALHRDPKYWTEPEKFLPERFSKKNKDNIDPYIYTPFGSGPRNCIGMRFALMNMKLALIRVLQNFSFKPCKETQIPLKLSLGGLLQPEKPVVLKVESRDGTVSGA
Tyrosine-protein kinase JAK3, sequence (P52333 whole entry): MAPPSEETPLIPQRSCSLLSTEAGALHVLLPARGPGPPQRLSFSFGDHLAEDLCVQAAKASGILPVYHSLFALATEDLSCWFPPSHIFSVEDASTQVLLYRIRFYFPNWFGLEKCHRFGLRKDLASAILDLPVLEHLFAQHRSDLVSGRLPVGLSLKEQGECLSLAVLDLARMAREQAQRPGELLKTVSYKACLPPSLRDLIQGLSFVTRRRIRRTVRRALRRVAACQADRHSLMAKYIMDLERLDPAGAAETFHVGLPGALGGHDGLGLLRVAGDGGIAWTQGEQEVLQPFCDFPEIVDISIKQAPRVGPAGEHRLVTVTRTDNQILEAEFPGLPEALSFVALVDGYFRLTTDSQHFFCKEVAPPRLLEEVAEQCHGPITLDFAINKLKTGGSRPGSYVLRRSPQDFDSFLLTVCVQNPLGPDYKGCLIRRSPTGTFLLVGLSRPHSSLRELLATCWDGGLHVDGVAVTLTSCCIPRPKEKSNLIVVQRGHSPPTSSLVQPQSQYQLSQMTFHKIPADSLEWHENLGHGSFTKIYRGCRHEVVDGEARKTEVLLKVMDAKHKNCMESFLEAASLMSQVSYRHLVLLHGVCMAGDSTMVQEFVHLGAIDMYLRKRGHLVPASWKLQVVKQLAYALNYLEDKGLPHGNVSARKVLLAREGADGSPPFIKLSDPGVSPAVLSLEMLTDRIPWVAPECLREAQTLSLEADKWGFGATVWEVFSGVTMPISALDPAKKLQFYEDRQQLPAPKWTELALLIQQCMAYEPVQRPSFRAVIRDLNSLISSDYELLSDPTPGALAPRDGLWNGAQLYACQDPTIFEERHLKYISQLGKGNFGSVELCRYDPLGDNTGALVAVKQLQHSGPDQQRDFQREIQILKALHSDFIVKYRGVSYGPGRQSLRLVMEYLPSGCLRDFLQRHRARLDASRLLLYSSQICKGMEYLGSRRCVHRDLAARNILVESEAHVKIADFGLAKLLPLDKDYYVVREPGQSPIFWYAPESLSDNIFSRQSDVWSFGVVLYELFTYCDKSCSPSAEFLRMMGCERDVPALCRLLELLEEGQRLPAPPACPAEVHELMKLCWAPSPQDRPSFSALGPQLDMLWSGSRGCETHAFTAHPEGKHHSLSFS

C[C@@H](O)c1nc2cnc3[nH]ccc3c2n1[C@H]1CC[C@H](O)CC1
CLhep predicted [1]: 1.9 mL/min/kg
EC50 [2]: 0.73 µM
EC50 [3]: 0.41 µM

C[C@H](O)c1nc2cnc3[nH]ccc3c2n1C1CCCCC1
EC50 [4]: 5.3 µM
Ki [5]: 0.09 µM

CO[C@H]1CC[C@H](n2c([C@@H](C)O)nc3cnc4[nH]ccc4c32)CC1
Papp A→B [6]: 6.7 ×10⁻⁶ cm/s
CLhep predicted [1]: 1.3 mL/min/kg
CLhep predicted [7]: 5.9 mL/min/kg

C[C@@H](O)c1nc2cnc3[nH]ccc3c2n1[C@H]1CC[C@H](NCC(F)(F)F)CC1
solubility thermodynamic [8]: 3900 µM (≈ 1490 µg/mL)
Papp A→B [6]: 6.7 ×10⁻⁶ cm/s
IC50 (Cytochrome P450 1A2): > 10 µM
CLhep predicted [1]: 3.3 mL/min/kg
Ki [9]: 0.076 µM
half-life [10]: 1.7 h
EC50 [11]: 0.31 µM
bioavailability [12]: 54%
CLhep predicted [13]: 2.3 mL/min/kg
AUC [14]: 9.9 µM·h
IC50 (Cytochrome P450 3A4 [15]): > 10 µM
IC50 (Cytochrome P450 3A4 [16]): > 10 µM
Ki [17]: 0.0008 µM
fraction unbound [18]: 0.45
IC50 [19]: > 100 µM
bioavailability [20]: 139%
IC50 (Cytochrome P450 2C19): > 10 µM
clearance [21]: 13 mL/min/kg
Cmax [22]: 2100 nM
half-life [23]: 0.5 h
Ki [24]: 0.0034 µM
clearance [25]: 36 mL/min/kg
EC50 [2]: 0.029 µM
Cmax [26]: 960 nM
solubility thermodynamic [27]: 130 µM (≈ 49.6 µg/mL)
IC50 (Cytochrome P450 2D6): > 10 µM
CLhep predicted [28]: 11 mL/min/kg
AUC [29]: 1.4 µM·h
Papp B→A [30]: 10 ×10⁻⁶ cm/s
CLhep predicted [31]: 26 mL/min/kg
CLhep predicted [7]: 2 mL/min/kg
fraction unbound [32]: 0.44
fraction unbound [33]: 0.35
EC50 [3]: 0.028 µM
IC50 (Cytochrome P450 2C9): > 10 µM

C[C@@H](O)c1nc2cnc3[nH]ccc3c2n1[C@@H]1CCCN(C(=O)CC#N)C1
Papp A→B [6]: 0.2 ×10⁻⁶ cm/s
CLhep predicted [1]: 1 mL/min/kg
Ki [17]: 0.0052 µM
EC50 [3]: 8.2 µM

C[C@@H](O)c1nc2cnc3[nH]ccc3c2n1[C@@H]1CCCOC1
CLhep predicted [1]: 4.6 mL/min/kg
Ki [17]: 0.068 µM

OC[C@H](O)c1nc2cnc3[nH]ccc3c2n1C1CCCCC1
Ki [17]: 0.0072 µM
EC50 [3]: 0.32 µM

C[C@@H](O)c1nc2cnc3[nH]ccc3c2n1C1CCOCC1
Ki [17]: 0.031 µM

C[C@@H](O)c1nc2cnc3[nH]ccc3c2n1[C@H]1CC[C@H](NCC(F)F)CC1
Papp A→B [6]: 2.8 ×10⁻⁶ cm/s
CLhep predicted [1]: 3.6 mL/min/kg
Ki [17]: 0.0011 µM
EC50 [2]: 0.062 µM
CLhep predicted [7]: 1.1 mL/min/kg
EC50 [3]: 0.057 µM

OCc1nc2cnc3[nH]ccc3c2n1C1CCCCC1
Papp A→B [6]: 24 ×10⁻⁶ cm/s
CLhep predicted [1]: 5.6 mL/min/kg
Ki [17]: 0.0011 µM
EC50 [4]: 0.73 µM
EC50 [2]: 0.313 µM
Ki [5]: 0.0083 µM
CLhep predicted [7]: 19 mL/min/kg
EC50 [3]: 0.064 µM

C[C@@H](O)c1nc2cnc3[nH]ccc3c2n1[C@H]1CC[C@H](NCC(F)(F)F)C1
Papp A→B [6]: 10 ×10⁻⁶ cm/s
CLhep predicted [1]: 5.6 mL/min/kg
Ki [17]: 0.0012 µM
EC50 [2]: 0.082 µM
CLhep predicted [7]: 3.5 mL/min/kg
EC50 [3]: 0.074 µM

C[C@@H](O)c1nc2cnc3[nH]ccc3c2n1[C@@H]1CCCN(C(=O)CC(F)(F)F)C1
CLhep predicted [1]: 5.2 mL/min/kg
Ki [17]: 0.043 µM

C[C@@H](O)c1nc2cnc3[nH]ccc3c2n1[C@H]1CC[C@@H](NCC(F)(F)F)CC1
CLhep predicted [1]: 18 mL/min/kg
Ki [17]: 0.053 µM
CLhep predicted [7]: 16 mL/min/kg

CC(C)(O)c1nc2cnc3[nH]ccc3c2n1C1CCCCC1
Papp A→B [6]: 19 ×10⁻⁶ cm/s
Ki [17]: 0.013 µM
EC50 [4]: 4.4 µM
Ki [5]: 0.076 µM
EC50 [3]: 0.33 µM

C[C@@H](O)c1nc2cnc3[nH]ccc3c2n1[C@H]1CC[C@@H](O)CC1
CLhep predicted [1]: 2.1 mL/min/kg
Ki [17]: 0.012 µM
EC50 [3]: 0.38 µM

OC[C@@H](O)c1nc2cnc3[nH]ccc3c2n1C1CCCCC1
Papp A→B [6]: 16 ×10⁻⁶ cm/s
CLhep predicted [1]: 1.8 mL/min/kg
Ki [17]: 0.0016 µM
EC50 [2]: 0.22 µM
CLhep predicted [7]: 6.8 mL/min/kg
EC50 [3]: 0.069 µM

OCCc1nc2cnc3[nH]ccc3c2n1C1CCCCC1
Papp A→B [6]: 23 ×10⁻⁶ cm/s
CLhep predicted [1]: 5.3 mL/min/kg
Ki [17]: 0.0035 µM
EC50 [4]: 1.5 µM
EC50 [2]: 1.5 µM
Ki [5]: 0.018 µM
CLhep predicted [7]: 17 mL/min/kg
EC50 [3]: 0.13 µM

CC[C@@H](O)c1nc2cnc3[nH]ccc3c2n1C1CCCCC1
Papp A→B [6]: 22 ×10⁻⁶ cm/s
CLhep predicted [1]: 7.6 mL/min/kg
CLhep predicted [7]: 12 mL/min/kg

C[C@@H](O)c1nc2cnc3[nH]ccc3c2n1[C@H]1CC[C@@H](C#N)CC1
Papp A→B [6]: 4.2 ×10⁻⁶ cm/s
CLhep predicted [1]: 4.3 mL/min/kg
Ki [17]: 0.0009 µM
EC50 [2]: 0.078 µM
CLhep predicted [7]: 5.6 mL/min/kg
EC50 [3]: 0.049 µM

C[C@@H](O)c1nc2cnc3[nH]ccc3c2n1C1CCN(CC(F)(F)F)CC1
Papp A→B [6]: 25 ×10⁻⁶ cm/s
CLhep predicted [1]: 9.2 mL/min/kg
Ki [17]: 0.0026 µM
EC50 [2]: 0.82 µM
CLhep predicted [7]: 8.5 mL/min/kg
EC50 [3]: 0.11 µM

C[C@@H](O)c1nc2cnc3[nH]ccc3c2n1C1CCN(CCC#N)CC1
Papp A→B [6]: 1.9 ×10⁻⁶ cm/s
CLhep predicted [1]: 4.2 mL/min/kg
Ki [17]: 0.0034 µM
EC50 [2]: 0.32 µM
CLhep predicted [7]: 6.8 mL/min/kg
EC50 [3]: 0.51 µM

C[C@@H](O)c1nc2cnc3[nH]ccc3c2n1[C@@H]1CCC[C@@H](O)C1
Papp A→B [6]: 1.1 ×10⁻⁶ cm/s
EC50 [2]: 0.14 µM
EC50 [3]: 0.12 µM

CCN1CCC(n2c([C@@H](C)O)nc3cnc4[nH]ccc4c32)C(F)(F)C1 (some centres not stated)
Papp A→B [6]: 15 ×10⁻⁶ cm/s
CLhep predicted [1]: 2.9 mL/min/kg
Ki [17]: 0.002 µM
EC50 [2]: 0.33 µM
CLhep predicted [7]: 3.7 mL/min/kg
EC50 [3]: 0.088 µM

C[C@@H](O)c1nc2cnc3[nH]ccc3c2n1C1CCCCC1
Papp A→B [6]: 23 ×10⁻⁶ cm/s
EC50 [4]: 1.7 µM
Ki [5]: 0.021 µM
